Measured values from patent US20190117657A1, “METHOD OF INHIBITING HIGH FAT DIET-RELATED CONDITIONS” (South Australian Health and Medical Research Institute …, priority 2016, published 2019).
“Also recorded” adds a separate entry of the source. Counter-ions that a name gives are not always drawn.

What was measured:
[1] = test system: MNKs; test: eIF4E phosphorylation (P-eIF4E immunoblot) in 3T3-L1 cells as read-out of MNK activity; format: cell-based; conditions: immunoblot
Text: Similar data obtained in three replicate experiments.
The term “MNK inhibitor” as used herein is intended to refer to any compound that reduces the biological activity of MNK1 (including reducing the biological activity of one or both of splice variants MNK1 a and MNK1b) and/or MNK2 (including reducing the biological activity of one or both of splice variants MNK2a and MNK2b), including by reducing the amount of MNK1 and/or MNK2 expressed. For example, the MNK inhibitor may be a small organic molecule (also referred to as a “small molecule” herein), a peptide antagonist, an inhibitory antibody or fragment thereof, an interfering nucleotide molecule, an aptamer or other MNK inhibitor that inhibits the expression or biological activity as would be understood by those skilled in the art. The biological activity of MNK1 and MNK2 can be measured in a variety of ways, for example, by measuring phosphorylation of its substrate eIF4E to P-eIF4E using any suitable method known to those skilled in the art, for example, by performing an immunoblot or ELISA utilising a specific anti-P-eIF4E antibody, for example, the anti-phospho eIF4E (Ser209) antibody distributed by Merck Millipore, Catalogue No. 07-823 (Merck Millipore, Billerica, Mass., United States of America). […] Those skilled in the art will be aware of how to conduct suitable controls when measuring P-eIF4E levels. The MNK1 and/or MNK2 bioactivity can otherwise be measured using a cellular assay that can detect levels of MNK1 and/or MNK2 bioactivity. Antibodies that specifically detect phosphorylated MNK could also be used, for example, anti-P-MNK1 (Phospho-Mnk1 (Thr197/202) Antibody #2111; Cell Signaling Technology Inc, Danvers, Mass., United States of America). Additionally, those skilled in the art will appreciate that the MNK inhibitors should be safe for use for its intended purpose.
Tissues were harvested in RIPA lysis buffer containing 50 mM TrisHCl, pH 7.4, 150 mM NaCl, 1% Triton X-100, 0.1% sodium deoxycholate, 0.1% sodium dodecyl sulfate, 1 mM ethylenediaminetetraaacteic acid (EDTA), 50 mM β-glycerolphosphate, 0.5 mM NaVO3, 0.1% 2-mercaptoethanol and protease inhibitors (Roche). After lysis, insoluble material was removed by centrifugation at 12,000 g for 10 min at 4° C. Protein content was determined by the Bradford protein assay (Bio-Rad). Immunoblotting was performed as described in Liu et al. (2014). Blots were visualised using a LI-COR Odyssey® Quantitative Imaging System. Primary antibodies as indicated in Table 5 were from Cell Signaling Technologies, except for anti-P-eIF4E (Merck Millipore). Secondary antibodies were obtained from Thermo Fisher Scientific Inc. (Waltham, Mass., United States of America) and used at 1:20,000 dilution.
MNKs are the only kinases known to phosphorylate eIF4E, and accordingly, the phosphorylation of eIF4E (P-eIF4E) provides a direct read-out of MNK biological activity.
Since eIF4E is only phosphorylated by the MNKs, its phosphorylation status is a reliable read-out of intracellular MNK activity. […] MNK2 is the main MNK in 3T3-L1 cells and in adipose tissue (Moore et al., 2016). In additional studies, tests were conducted to assess the effect of the MNK-I2 inhibitor on the induction of differentiation markers in 3T3-L1 cells.

[2] = test system: 3T3-L1 cells; test: Lipid accumulation in differentiating 3T3-L1 cells (Oil Red O / triglyceride); format: cell-based; conditions: 20 μM, 3T3-L1 cells differentiated 9 days
Description: (§1) For induction of 3T3-L1 (fibroblast) cell differentiation, pre-adipocytes were grown to 2 days post-confluence in DMEM supplemented with 10% FBS (day 0) and the medium was changed to DMEM supplemented with 10% FBS, insulin (167 nM), dexamethasone (0.5 μM), isobutylmethylxanthine (IBMX) (0.5 mM) and rosiglitazone (2 μM). After 48 h, the medium was replaced with medium containing DMEM supplemented with 10% (v/v) FBS and 167 nM insulin. On day 4, after inducing differentiation, and thereafter, the cells were cultured in DMEM with 10% FBS. The maintenance medium was changed every 48 h until the cells were utilised for experimentation (9 days from the initiation of differentiation).
Assessment of intracellular triglyceride levels was performed using Oil Red O staining as described by others (Smith et al., 1988). Briefly, on day 9 of differentiation of the 3T3-L1 cells were fixed in 10% formalin for 1 hour. […] For quantification, cells were washed extensively with water to remove unbound dye, and 1 ml isopropanol was added to the stained 6-well culture plate. After 5 min, the absorbance of the oil red extract at 510 nm was measured, with an increased absorbance indicative of an increased lipid level within the cells.
The amount of tissue-released triglyceride (TAG) was measured using a Triglyceride Quantification Kit (Abcam, ab65336).

[3] = test system: 3T3-L1 cells; test: Induction of adipogenic gene mRNAs in differentiating 3T3-L1 cells (RT-qPCR); format: cell-based; conditions: 20 μM, day 3 and 6 of differentiation
Description: Total RNA was isolated from tissues (frozen at the time of sampling) using Trizol reagent (Sigma-Aldrich) according to the manufacturer's instructions. RNA concentrations were determined by absorbance at 260 nm, while quality and integrity were evaluated via 260/230 and 260/280 ratios using a NanoDrop spectrophotometer (Thermo Fisher Scientific). RT-real time PCR amplification was carried out using the ImProm-II Reverse Transcription System (A3800; Promega, Madison, Wis., United States of America) with random primers following the manufacturer's protocol. Subsequently, real-time quantitative (q) PCR was performed using primer sequences described in Supplemental Table S1 of Moore CEJ et al., 2016, the content of which is hereby incorporated by reference in its entirety). The comparative CT method was used to measure the amplification of target mRNA levels compared with […] (B2M) mRNA. In FIG. 1A, the relative amount of each transcript was determined using the equation 2^−dCt, where dCt=(Ct target gene-Ct ref gene), and Ct=cycle threshold.
as §1
In order to study the role of MNK2 in adipocyte differentiation, 3T3-L1 cells were used in a similar manner to that described in Example 1. […]

[4] = test system: 3T3L1 cells; test: Lipolysis assay (glycerol release) in differentiated 3T3-L1 cells; format: cell-based; conditions: cells differentiated in presence vs absence of compound
Description: 3T3L1 cells were differentiated as described above for 9 days. The lipolysis assay was performed according to the manufactures instructions (Abcam Lipolysis assay kit, ab185433, Abcam). Briefly, after differentiation cells were washed two times with lipolysis assay buffer. Lipolysis was stimulated using 100 nM isoproterenol for 3 h. The amount of glycerol released was measured using colorimetric intensity.

[5] = test system: other protein kinases; conditions: cited from earlier work
[6] = target: MNK1 (Homo sapiens, UniProt Q9BUB5); conditions: cited from earlier work
[7] = target: MNK2 (Homo sapiens, UniProt Q9HBH9); conditions: cited from earlier work
MNK2, sequence (Q9HBH9 whole entry, species assumed): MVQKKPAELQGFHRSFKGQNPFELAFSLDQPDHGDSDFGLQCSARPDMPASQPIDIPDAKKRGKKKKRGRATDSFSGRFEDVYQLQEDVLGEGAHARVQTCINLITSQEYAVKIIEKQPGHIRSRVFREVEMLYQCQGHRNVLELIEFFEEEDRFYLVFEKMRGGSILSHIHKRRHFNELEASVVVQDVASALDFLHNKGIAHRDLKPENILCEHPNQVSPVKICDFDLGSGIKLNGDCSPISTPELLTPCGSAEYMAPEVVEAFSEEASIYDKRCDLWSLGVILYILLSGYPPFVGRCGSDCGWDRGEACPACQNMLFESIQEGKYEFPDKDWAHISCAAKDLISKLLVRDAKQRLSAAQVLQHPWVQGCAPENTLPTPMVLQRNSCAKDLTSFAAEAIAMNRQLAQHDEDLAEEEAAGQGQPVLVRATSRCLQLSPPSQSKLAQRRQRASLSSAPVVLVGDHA

MNK1, sequence (Q9BUB5 whole entry, species assumed): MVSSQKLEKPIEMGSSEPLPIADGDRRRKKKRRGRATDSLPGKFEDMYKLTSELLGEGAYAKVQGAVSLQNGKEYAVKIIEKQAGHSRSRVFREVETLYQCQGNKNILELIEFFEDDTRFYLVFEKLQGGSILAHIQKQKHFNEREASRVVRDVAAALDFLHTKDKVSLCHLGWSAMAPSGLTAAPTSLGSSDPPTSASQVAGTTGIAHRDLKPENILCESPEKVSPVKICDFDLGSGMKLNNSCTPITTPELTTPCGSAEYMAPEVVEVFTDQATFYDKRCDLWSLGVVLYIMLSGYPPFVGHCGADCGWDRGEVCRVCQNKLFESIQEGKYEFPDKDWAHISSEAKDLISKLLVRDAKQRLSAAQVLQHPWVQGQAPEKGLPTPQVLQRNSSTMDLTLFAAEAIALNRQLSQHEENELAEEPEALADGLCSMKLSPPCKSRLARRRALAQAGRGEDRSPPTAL

Compound | inhibition of P-eIF4E / MNK activity [1] | accumulation of lipid (Oil Red O) [2] | induction of adipogenic genes (PPARγ, C/EBPα, SREBP1c, GLUT4, CD36 mRNA) [3] | glycerol released in lipolysis assay [4] | inhibition of other protein kinases [5] | IC50 [6] | IC50 [7]
Nc1ncnc2[nH]nc(Nc3ccc(F)cc3)c12 [CGP57380, N3-(4-Fluorophenyl)-1H-pyrazolo-[3,4-d]pyrimidine-3,4-diamine] | almost completely blocking MNK activity | inhibited the accumulation of lipid; also recorded: markedly inhibited | substantially blocked the induction of all of these genes; also recorded: impairs the induction of key transcription factors; also recorded: inhibits the expression of the glucose and lipid transporters GLUT4 and CD36; also recorded: inhibited expression of a number of genes required for adipocyte differentiation | less glycerol was released | inhibit other protein kinases in addition to the MNKs | – | –
c1cc(-c2cc(C3CCNCC3)[nH]n2)ccn1 [ETP 45835 dihydrochloride, 4-[5-(4-Piperidinyl)-1H-pyrazol-3-yl]pyridine dihydrochloride] | – | – | – | – | – | 575 nM | 646 nM
